Conditions: Liquid

C1CCCCC1 [cyclohexane]
Conditions | vapor or sublimation pressure [kPa]
302.92 K | 16.06
304.19 K | 16.95
306.91 K | 19.05
308.27 K | 20.16
309.9 K | 21.56
313.16 K | 24.61
318.19 K | 30.03
323.14 K | 36.23
328.16 K | 43.51
331.9 K | 49.68
333.16 K | 51.9
333.17 K | 51.9
338.16 K | 61.56
343.16 K | 72.53
345.42 K | 77.94
348.05 K | 84.73

CCO [ethanol]
Conditions | vapor or sublimation pressure [kPa]
312.17 K | 17
313.43 K | 18.15
318.15 K | 23.07
318.24 K | 23.18
320.87 K | 26.39
323.15 K | 29.48
326.13 K | 34
326.16 K | 34.02
328.14 K | 37.34
328.17 K | 37.39
330.65 K | 41.9
333.16 K | 46.94
336.1 K | 53.47
336.14 K | 53.56
338.16 K | 58.48
343.15 K | 72.3
348.14 K | 88.77
351.38 K | 101.11
351.42 K | 101.23

O [water]
Conditions | vapor or sublimation pressure [kPa]
327.13 K | 15
328.16 K | 15.75
330.78 K | 17.85
333.15 K | 19.94
335.82 K | 22.53
338.15 K | 25.02
340.67 K | 27.98
343.16 K | 31.21
346.13 K | 35.42
348.14 K | 38.55
353.14 K | 47.36
358.14 K | 57.79

— the NIST ThermoML archive (doi:10.1021/je025621h)
